Tested on: P388
Assay: Cytotoxicity against mouse P388 cells after 72 hrs by MTT assay
Format: functional, cell-based
Conditions: P388, 72 h

Question: `CC(=O)CC(C)(C)N.CC(C)=CCC[C@@H](C)/C=C/CCOS(=O)(=O)O` was tested. Which IC50 did it give?
Answer: Its IC50 is 290 µM.

From ChEMBL document CHEMBL1158135, “Sulfated alkenes from the echinus Temnopleurus hardwickii” (J Nat Prod, 2006)
